Measured values reported in publication PMC7735735, “Store-Operated Calcium Entry as a Therapeutic Target in Acute Pancreatitis: Discovery and Development of Drug-Like SOCE Inhibitors” (Journal of Medicinal Chemistry, 2020).
Read-outs that look alike come from different tables or passages of the source.

Experiments:
SOCE [1] = assay: SOCE inhibition in HEK cells by fluorescence microscopy (calcium imaging); type: cell-based, human; settings: for inhibition at 3 µM / inhibition at 10 µM: Homo sapiens; for inhibition at 10 µM: negative value = increased Ca2+ entry vs control; for AUC, peak amplitude, and slope of the Ca2+-rise: selected compounds, Figure S1
Experimental: With these two compounds in hand, two click reactions were performed and compounds 9 and 18 (Table 1), displaying the same substructures as the reference compound Synta66, were obtained with a yield of 31 and 60%, respectively. 9 and 18 were tested for activity on SOCE in HEK cells, a human embryonic kidney (HEK) cell line, by fluorescence microscopy, as described elsewhere.[16] After 600 s, Ca^2+ was added and intracellular levels were measured.
Screening, dose–response experiments, and calcium imaging experiments were performed in HEK cells (ATCC, Rock, ville, MD, USA), as already reported elsewhere.[16]

HEK cells [2] = assay: HEK cell viability after 72 h at 50 μM with or without uridine (involvement of DHODH); settings: 50 μM, 72 h; for reversal of cytotoxicity by uridine: uridine 100 μM
SOCE [3] = system: SOCE; parameters: method as in PMID 29038464; settings: HEK cells; cited from earlier work
ICRAC = system: ICRAC; parameters: method as in PMID 19648266; settings: cited from earlier work
chemically induced AP = system: chemically induced AP; parameters: method as in PMID 31050811; settings: three different murine models; cited from earlier work
HEK cells [4] = system: HEK cells
[5] = HEK293, supplementary CSV, HEK cells, read-out: % SOCE Inhibition (3 µM)

COc1cccc(OC)c1-c1ccc(-c2cn(-c3cccc(C(=O)O)c3)nn2)cc1 [Compound 47, 3-(4-(2′,6′-Dimethoxy-[1,1′-biphenyl]-4-yl)-1H-1,2,3-triazol-1-yl)benzoic Acid]
effect on SOCE, in words (SOCE [1]; HEK cells): positive modulator of SOCE | AUC of calcium entry and peak amplitude vs control (SOCE [1]; HEK cells, 3 μM): significantly increased the AUC of calcium entry and the peak amplitude | slope of the Ca2+-rise vs control (SOCE [1]; HEK cells, 3 μM): absence of effect on slope | inhibition at 3 µM (SOCE [1]; HEK293, HEK cells, 3 μM, negative value = increased SOCE, read-out: % SOCE inhibition (3 μM)): -22.8 ± 0.9%

O=C(O)c1cccc(C(=O)Nc2ccc(-c3ccc4c(c3)OCCO4)cc2)c1 [Compound 64, 3-((4-(2,3-Dihydrobenzo[b][1,4]dioxin-6-yl)phenyl)carbamoyl)benzoic Acid]
effect on SOCE, in words (SOCE [1]; HEK cells): significantly reduced activity compared to the parent compound | cell viability / cytotoxicity at 50 μM, 72 h (HEK cells [2]): significant cytotoxicity | reversal of cytotoxicity by uridine (HEK cells [2]): fully reverted by uridine

COc1ccc(OC)c(-c2ccc(-n3cc(-c4ccccn4)nn3)cc2)c1 [Compound 12, 2-(1-(2′,5′-Dimethoxy-[1,1′-biphenyl]-4-yl)-1H-1,2,3-triazol-4-yl)pyridine]
inhibition at 10 µM (SOCE [1]; HEK293, HEK cells, 10 μM): 0% | inhibition at 3 µM (SOCE [1]; [5]): 0%

COc1cc(OC)cc(-c2ccc(-n3cc(-c4cccc(C(=O)O)c4)nn3)cc2)c1 [Compound 36, 3-(1-(3′,5′-Dimethoxy-[1,1′-biphenyl]-4-yl)-1H-1,2,3-triazol-4-yl)benzoic Acid]
AUC, peak amplitude, and slope of the Ca2+-rise (SOCE [1]; HEK cells): induced a drop in the three parameters

COc1ccc(F)c(-c2ccc(-c3cn(-c4cccc(C(=O)O)c4)nn3)cc2)c1 [Compound 56, 3-(4-(2′-Fluoro-5′-methoxy-[1,1′-biphenyl]-4-yl)-1H-1,2,3-triazol-1-yl)benzoic Acid]
AUC, peak amplitude, and slope of the Ca2+-rise (SOCE [1]; HEK cells): induced a drop in the three parameters

C/C(O)=C(\C#N)C(=O)Nc1ccc(C(F)(F)F)cc1 [teriflunomide]
IC50 (SOCE [3]): 4.3 ± 1 µM

O=C(O)c1cccc(NC(=O)c2ccc(-c3ccc4c(c3)OCCO4)cc2)c1 [Compound 69, 3-(4-(2,3-Dihydrobenzo[b][1,4]dioxin-6-yl)benzamido)benzoic Acid]
effect on SOCE, in words (SOCE [1]; HEK cells): significantly reduced activity compared to the parent compound

COc1cccc(-c2ccc(-n3cc(-c4cccc(C(=O)O)c4)nn3)cc2)c1 [Compound 31, 3-(1-(3′-Methoxy-[1,1′-biphenyl]-4-yl)-1H-1,2,3-triazol-4-yl)benzoic Acid]
AUC, peak amplitude, and slope of the Ca2+-rise (SOCE [1]; HEK cells): induced a drop in the three parameters

COc1ccc(OC)c(-c2ccc(NC(=O)c3ccncc3F)cc2)c1 [Synta66, reference compound]
AUC and peak amplitude of the Ca2+-rise vs control (SOCE [1]; HEK cells, 10 μM): significantly reduced AUC and peak amplitude | slope of the Ca2+-rise vs control (SOCE [1]; HEK cells, 10 μM): significant effect on the slope | inhibition at 10 µM (SOCE [1]; HEK293, HEK cells, 10 μM): 90.8 ± 1.7% | inhibition at 3 µM (SOCE [1]; [5]): 90.8 ± 1.7% | IC50 (ICRAC): 1.4 to 3 µM | cell viability / cytotoxicity at 50 μM, 72 h (HEK cells [2]): significant cytotoxicity

COc1ccc(F)c(-c2ccc(-n3cc(-c4cccc(C(=O)O)c4)nn3)cc2)c1 [Compound 40, 3-(1-(2′-Fluoro-5′-methoxy-[1,1′-biphenyl]-4-yl)-1H-1,2,3-triazol-4-yl)benzoic Acid]
AUC, peak amplitude, and slope of the Ca2+-rise (SOCE [1]; HEK cells): induced a drop in the three parameters

O=C(O)c1cccc(-c2cn(-c3ccc(-c4ccc5c(c4)OCCO5)cc3)nn2)c1 [Compound 38, 3-(1-(4-(2,3-Dihydrobenzo[b][1,4]dioxin-6-yl)phenyl)-1H-1,2,3-triazol-4-yl)benzoic Acid]
AUC, peak amplitude, and slope of the Ca2+-rise (SOCE [1]; HEK cells): induced a drop in the three parameters

COc1ccc(OC)c(-c2ccc(-n3cc(-c4cccnc4)nn3)cc2)c1 [Compound 11, 3-(1-(2′,5′-Dimethoxy-[1,1′-biphenyl]-4-yl)-1H-1,2,3-triazol-4-yl)pyridine]
effect on SOCE, in words (SOCE [1]; HEK cells): not able to reliably inhibit SOCE | inhibition at 10 µM (SOCE [1]; HEK293, HEK cells, 10 μM): -14 ± 31.9% | inhibition at 3 µM (SOCE [1]; [5]): -14 ± 31.9%

COc1ccc(OC)c(-c2ccc(-c3cn(-c4cccc(C(=O)O)c4)nn3)cc2)c1 [Compound 23, 3-(4-(2′,5′-Dimethoxy-[1,1′-biphenyl]-4-yl)-1H-1,2,3-triazol-1-yl)benzoic Acid]
AUC and peak amplitude of the Ca2+-rise vs control (SOCE [1]; HEK cells, 10 μM): significantly reduced AUC and peak amplitude | inhibition at 10 µM (SOCE [1]; HEK293, HEK cells, 10 μM): > 70%

COc1ccc(OC)c(-c2ccc(-n3cc(-c4ccnc(C(=O)O)c4)nn3)cc2)c1 [Compound 13, 4-(1-(2′,5′-Dimethoxy-[1,1′-biphenyl]-4-yl)-1H-1,2,3-triazol-4-yl)picolinic Acid]
inhibition at 10 µM (SOCE [1]; HEK293, HEK cells, 10 μM): > 70%

COC(=O)c1cc(-n2cc(-c3ccc(-c4cc(OC)ccc4OC)cc3)nn2)ccn1 [Compound 21, Methyl 4-(4-(2′,5′-Dimethoxy-[1,1′-biphenyl]-4-yl)-1H-1,2,3-triazol-1-yl)picolinate]
inhibition at 10 µM (SOCE [1]; HEK293, HEK cells, 10 μM): > 70%

O=C(Nc1ccn(Cc2ccc(O)cc2C(F)(F)F)n1)c1c(F)cccc1F [GSK-7975A]
protection in murine models of chemically induced AP (chemically induced AP): protective

Cc1c(-c2ccc(-c3ccccc3F)cc2)nc2ccc(F)cc2c1C(=O)O [brequinar]
cell viability / cytotoxicity at 50 μM, 72 h (HEK cells [4]): cytotoxic | reversal of cytotoxicity by uridine (HEK cells [4]): reverted by uridine addition

Cc1cccc(F)c1C(=O)Nc1cnc(-c2cc3c(cc2Cl)OC(F)(F)O3)cn1 [CM4620, reference compound]
protection in murine models of chemically induced AP (chemically induced AP): protective | cell viability / cytotoxicity at 50 μM, 72 h (HEK cells [2]): cytotoxic | reversal of cytotoxicity by uridine (HEK cells [2]): not reverted by uridine

COc1ccc(OC)c(-c2ccc(-n3cc(-c4cccc(C(=O)O)c4)nn3)cc2)c1 [Compound 14, 3-(1-(2′,5′-Dimethoxy-[1,1′-biphenyl]-4-yl)-1H-1,2,3-triazol-4-yl)benzoic Acid]
inhibition at 10 µM (SOCE [1]; HEK293, HEK cells, 10 μM): > 70%

COc1ccc(OC)c(-c2ccc(-c3cn(-c4ccncc4)nn3)cc2)c1 [Compound 19, 4-(4-(2′,5′-Dimethoxy-[1,1′-biphenyl]-4-yl)-1H-1,2,3-triazol-1-yl)pyridine]
effect on SOCE, in words (SOCE [1]; HEK cells): not able to reliably inhibit SOCE

COc1ccc(OC)c(-c2ccc(-c3cn(-c4cccnc4)nn3)cc2)c1 [Compound 20, 3-(4-(2′,5′-Dimethoxy-[1,1′-biphenyl]-4-yl)-1H-1,2,3-triazol-1-yl)pyridine]
effect on SOCE, in words (SOCE [1]; HEK cells): not able to reliably inhibit SOCE

COc1ccc(OC)c(-c2ccc(-n3cc(-c4ccncc4F)nn3)cc2)c1 [Compound 9, 4-(1-(2′,5′-Dimethoxy-[1,1′-biphenyl]-4-yl)-1H-1,2,3-triazol-4-yl)-3-fluoropyridine]
effect on SOCE, in words (SOCE [1]; HEK cells): not able to reliably inhibit SOCE

COc1ccc(OC)c(-c2ccc(-n3cc(-c4ccncc4)nn3)cc2)c1 [Compound 10, 4-(1-(2′,5′-Dimethoxy-[1,1′-biphenyl]-4-yl)-1H-1,2,3-triazol-4-yl)pyridine]
effect on SOCE, in words (SOCE [1]; HEK cells): not able to reliably inhibit SOCE | inhibition at 10 µM (SOCE [1]; HEK293, HEK cells, 10 μM): -12.8 ± 14.4% | inhibition at 3 µM (SOCE [1]; [5]): -12.8 ± 14.4%

COc1cccc(-c2ccc(-c3cn(-c4cccc(C(=O)O)c4)nn3)cc2)c1OC [Compound 50, 3-(4-(2′,3′-Dimethoxy-[1,1′-biphenyl]-4-yl)-1H-1,2,3-triazol-1-yl)benzoic Acid]
AUC, peak amplitude, and slope of the Ca2+-rise (SOCE [1]; HEK cells): induced a drop in the three parameters

O=C(O)c1cccc(-c2cn(-c3ccc(-c4cccc5c4OCCO5)cc3)nn2)c1 [Compound 35, 3-(1-(4-(2,3-Dihydrobenzo[b][1,4]dioxin-5-yl)phenyl)-1H-1,2,3-triazol-4-yl)benzoic Acid]
AUC, peak amplitude, and slope of the Ca2+-rise (SOCE [1]; HEK cells): induced a drop in the three parameters
